The source of these data is US20230278996A1, “YKL-40 INHIBITORS AND THEIR THERAPEUTIC APPLICATIONS” (Molecure S.A., priority 2022, published 2023).

For this test, the target named is YKL-40 (Homo sapiens (Human), UniProt P36222). Briefly: YKL-40:4 assay, competitive chitin binding site AlphaScreen. To be noted: competition with biotinylated compound 4 (20 nM), YKL-40-histag 2.5 nM. Background: Bead proximity is the source of the signal in Alpha formats.

pIC50: −log10 of the molar value. Structures can show the parent of a compound that is named as a salt. Bounds are passed on as bounds.

Chain of YKL-40 (P36222 22-383): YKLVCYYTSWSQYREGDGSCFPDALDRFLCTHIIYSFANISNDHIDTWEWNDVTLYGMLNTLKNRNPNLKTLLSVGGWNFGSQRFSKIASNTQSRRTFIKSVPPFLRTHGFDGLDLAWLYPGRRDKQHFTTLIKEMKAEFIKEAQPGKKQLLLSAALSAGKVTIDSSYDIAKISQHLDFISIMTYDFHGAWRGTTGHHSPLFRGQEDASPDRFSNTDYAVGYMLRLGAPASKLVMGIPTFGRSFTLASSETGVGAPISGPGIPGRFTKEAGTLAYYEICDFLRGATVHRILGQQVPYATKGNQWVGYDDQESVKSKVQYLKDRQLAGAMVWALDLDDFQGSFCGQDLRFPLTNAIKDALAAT

As usually defined, the pIC50 is the negative decadic logarithm of the IC50, by convention in mol/L. A higher pIC50 goes with a small IC50. `O=C1c2ccccc2C(=O)N1C[C@H]1CN(C2CCN(c3ncccn3)CC2)[C@@H](Cc2ccc(Cl)cc2)CO1` [compound 76, 2-(((2R,5S)-5-(4-chlorobenzyl)-4-(1-(pyrimidin-2-yl)piperidin-4-yl)morpholin-2-yl)methyl)isoindoline-1,3-dione dihydrochloride] had a pIC50 of under 4.00.

Regarding `CC1CC(N2C[C@H](C)OC[C@@H]2Cc2ccc(Cl)cc2)CCN1c1cc(Cl)ccn1` (single isomer, unassigned) [Example 32, 2,2,2-trifluoroacetate], the negative-log IC50 (pIC50) is over 7.00.

Regarding `CN1CCN(C[C@H]2CN(C3CCN(c4ncccn4)CC3)[C@@H](Cc3ccc(Cl)cc3)CO2)CC1` [compound 71, (2S,5S)-5-(4-chlorobenzyl)-2-((4-methylpiperazin-1-yl)methyl)-4-(1-(pyrimidin-2-yl)piperidin-4-yl)morpholine 2,2,2-trifluoroacetate], the negative-log IC50 (pIC50) was 5.00 to 6.00.

Take `C[C@H]1CN(C2CCN(c3ncccc3C#N)CC2)[C@@H](Cc2ccc(Cl)cc2)CO1` [Example 22, 2-(4-((2S,5S)-5-(4-chlorobenzyl)-2-methylmorpholino)piperidin-1-yl)nicotinonitrile 2,2,2-trifluoroacetate]: the negative-log IC50 (pIC50) is 6.00 to 7.00.

In turn, `Clc1ccc(C[C@H]2COc3ccccc3CN2C2CCN(c3ccccn3)CC2)cc1` [compound 81, (S)-3-(4-chlorobenzyl)-4-(1-(pyridin-2-yl)piperidin-4-yl)-2,3,4,5-tetrahydrobenzo[f][1,4]oxazepine hydrochloride] gave a pIC50 of under 4.00.

`C[C@H]1CN(C2CCN(c3cc(O)ccn3)CC2)[C@@H](Cc2ccc(Cl)cc2)CO1` [compound 161, 2-(4-((2S,5S)-5-(4-chlorobenzyl)-2-methylmorpholino)piperidin-1-yl)pyridin-4-ol 2,2,2-trifluoroacetate]: the pIC50 is 4.00 to 5.00.

In turn, `CC(C)C[C@H]1CN(C2CCN(c3ccccn3)CC2)[C@@H](Cc2ccc(Cl)cc2)CN1C(=O)OC(C)(C)C` [Example 2e, tert-butyl (2S,5S)-5-(4-chlorobenzyl)-2-isobutyl-4-(1-(pyridin-2-yl)piperidin-4-yl)piperazine-1-carboxylate] had a pIC50 of under 4.00.

Compound `C[C@H]1CN(C2CCN(c3cncc(C(F)(F)F)n3)CC2)[C@@H](Cc2ccc(Cl)cc2)CO1` [compound 153, (2S,5S)-5-(4-chlorobenzyl)-2-methyl-4-(1-(6-(trifluoromethyl)pyrazin-2-yl)piperidin-4-yl)morpholine hydrochloride] gave a negative logarithm of the IC50 (pIC50) of under 4.00.

Compound `CN1CCN(C2CCN(c3ccccn3)CC2)[C@@H](Cc2ccc(Cl)cc2)C1` [compound 64, (S)-2-(4-chlorobenzyl)-4-methyl-1-(1-(pyridin-2-yl)piperidin-4-yl)piperazine 2,2,2-trifluoroacetate] showed a negative-log IC50 (pIC50) of 6.00 to 7.00.

The compound `C[C@H]1CN(C2CCN(c3nccc(C(F)(F)F)n3)CC2)[C@@H](Cc2ccc(Cl)cc2)CO1` [compound 146, (2S,5S)-5-(4-chlorobenzyl)-2-methyl-4-(1-(4-(trifluoromethyl)pyrimidin-2-yl)piperidin-4-yl)morpholine hydrochloride] showed a negative-log IC50 (pIC50) of 5.00 to 6.00.

In turn, `C[C@H]1CN(C2CCN(c3ccccn3)CC2)[C@@H](Cc2ccc(Cl)cc2)CN1CC(=O)NC1CC1` [compound 103, 2-((2S,5S)-5-(4-chlorobenzyl)-2-methyl-4-(1-(pyridin-2-yl)piperidin-4-yl)piperazin-1-yl)-N-cyclopropylacetamide 2,2,2-trifluoroacetate] gave a pIC50 of 6.00 to 7.00.

In turn, `CO[C@H]1CN(c2cc(Cl)ccn2)CC[C@@H]1N1C[C@H](C)OC[C@@H]1Cc1ccc(Cl)cc1` [compound 60, (2S,5S)-5-(4-chlorobenzyl)-4-((3S,4S)-1-(4-chloropyridin-2-yl)-3-methoxypiperidin-4-yl)-2-methylmorpholine 2,2,2-trifluoroacetate] showed a pIC50 of 4.00 to 5.00.

In the case of `Cc1ccnc(N2CCC(N3C[C@H](C)OC[C@@H]3Cc3ccc(Cl)cc3)CC2)n1` [Example 39, (2S,5S)-5-(4-chlorobenzyl)-2-methyl-4-(1-(4-methylpyrimidin-2-yl)piperidin-4-yl)morpholine dihydrochloride], the negative-log IC50 (pIC50) is 6.00 to 7.00.

In turn, `COc1ccnc(N2CCC(N3C[C@H](C)OC[C@@H]3Cc3ccc(Cl)cc3)CC2)c1` [Example 29, (2S,5S)-5-(4-chlorobenzyl)-4-(1-(4-methoxypyridin-2-yl)piperidin-4-yl)-2-methylmorpholine 2,2,2-trifluoroacetate] had a pIC50 of 6.00 to 7.00.

As to `C[C@H]1CN(C2CCN(c3ccc(F)cn3)CC2)[C@@H](Cc2ccc(Cl)cc2)CO1` [Example 9, (2S,5S)-5-(4-chlorobenzyl)-4-(1-(5-fluoropyridin-2-yl)piperidin-4-yl)-2-methylmorpholine 2,2,2-trifluoroacetate], the negative-log IC50 (pIC50) was 5.00 to 6.00.

`CC(C)c1nc(N2CCC(N3C[C@H](C)OC[C@@H]3Cc3ccc(Cl)cc3)CC2)no1` [compound 163, (2S,5S)-5-(4-chlorobenzyl)-4-(1-(5-isopropyl-1,2,4-oxadiazol-3-yl)piperidin-4-yl)-2-methylmorpholine 2,2,2-trifluoroacetate] had a pIC50 of under 4.00.

Regarding `C[C@H]1CN(C2CCN(c3ncccc3C(N)=O)CC2)[C@@H](Cc2ccc(Cl)cc2)CO1` [compound 114, 2-(4-((2S,5S)-5-(4-chlorobenzyl)-2-methylmorpholino)piperidin-1-yl)nicotinamide 2,2,2-trifluoroacetate], the negative logarithm of the IC50 (pIC50) was under 4.00.

In turn, `C[C@H]1CN(C2CCN(c3cc(=O)[nH]cn3)CC2)[C@@H](Cc2ccc(Cl)cc2)CO1` [compound 167, 6-(4-((2S,5S)-5-(4-chlorobenzyl)-2-methylmorpholino)piperidin-1-yl)pyrimidin-4(3H)-one 2,2,2-trifluoroacetate] had a pIC50 of under 4.00.

Take `C[C@H]1CN(C2CCN(c3cccc(C#N)n3)CC2)[C@@H](Cc2ccc(Cl)cc2)CO1` [Example 18, 6-(4-((2S,5S)-5-(4-chlorobenzyl)-2-methylmorpholino)piperidin-1-yl)picolinonitrile 2,2,2-trifluoroacetate]: the pIC50 was under 4.00.

As for `O=C1COC[C@H](Cc2ccc(Cl)cc2)N1C1CCN(c2ccccn2)CC1` [compound 147, (S)-5-(4-chlorobenzyl)-4-(1-(pyridin-2-yl)piperidin-4-yl)morpholin-3-one hydrochloride], the pIC50 is under 4.00.

`C[C@H]1CN(C2CCN(c3nncs3)CC2)[C@@H](Cc2ccc(Cl)cc2)CO1` [compound 181, (2S,5S)-4-(1-(1,3,4-thiadiazol-2-yl)piperidin-4-yl)-5-(4-chlorobenzyl)-2-methylmorpholine 2,2,2-trifluoroacetate] gave a pIC50 of under 4.00.

In the case of `C[C@H]1CN(C2CCN(c3ccc(C#N)cn3)CC2)[C@@H](Cc2ccc(Cl)cc2)CO1` [Example 19, 6-(4-((2S,5S)-5-(4-chlorobenzyl)-2-methylmorpholino)piperidin-1-yl)nicotinonitrile 2,2,2-trifluoroacetate], the pIC50 is under 4.00.

For the compound `C[C@H]1CN(C2CCN(c3cnc(C(F)(F)F)cn3)CC2)[C@@H](Cc2ccc(Cl)cc2)CO1` [compound 158, (2S,5S)-5-(4-chlorobenzyl)-2-methyl-4-(1-(5-(trifluoromethyl)pyrazin-2-yl)piperidin-4-yl)morpholine hydrochloride], the pIC50 is under 4.00.

With `C[C@H]1CN(C2CCN(c3c(F)cccc3C#N)CC2)[C@@H](Cc2ccc(Cl)cc2)CO1` [compound 118, 2-(4-((2S,5S)-5-(4-chlorobenzyl)-2-methylmorpholino)piperidin-1-yl)-3-fluorobenzonitrile 2,2,2-trifluoroacetate], the pIC50 was under 4.00.

`C[C@H]1CN(C2C[C@H]3CC[C@@H](C2)N3c2cc(Cl)ccn2)[C@@H](Cc2ccc(Cl)cc2)CO1` (stereo partly drawn) [compound 58, (2S,5S)-5-(4-chlorobenzyl)-4-((1R,5S)-8-(4-chloropyridin-2-yl)-8-azabicyclo[3.2.1]octan-3-yl)-2-methylmorpholine 2,2,2-trifluoroacetate]: the pIC50 is under 4.00.

With `Clc1ccc(C[C@H]2CN3CCC[C@H]3CN2C2CCN(c3ccccn3)CC2)cc1` [Example 38, (3S,8aS)-3-(4-chlorobenzyl)-2-(1-(pyridin-2-yl)piperidin-4-yl)octahydropyrrolo[1,2-α]pyrazine 2,2,2-trifluoroacetate], the pIC50 is over 7.00.

Regarding `COCCOCCOCCOCCOCCOCCOCCOCCOCCOCCOCCOCCC(=O)OC[C@H]1CN(C2CCN(c3ccccn3)CC2)[C@@H](Cc2ccc(Cl)cc2)CO1` [Example 7, ((2R,5S)-5-(4-chlorobenzyl)-4-(1-(pyridin-2-yl)piperidin-4-yl)morpholin-2-yl)methyl 2,5,8,11,14,17,20,23,26,29,32,35-dodecaoxaoctatriacontan-38-oate 2,2,2-trifluoroacetate], the negative-log IC50 (pIC50) is 6.00 to 7.00.

`C[C@H]1CN(C2CCN(c3ccccc3C#N)CC2)[C@@H](Cc2ccc(Cl)cc2)CO1` [compound 119, 2-(4-((2S,5S)-5-(4-chlorobenzyl)-2-methylmorpholino)piperidin-1-yl)benzonitrile 2,2,2-trifluoroacetate]: the negative logarithm of the IC50 (pIC50) was under 4.00.

With `O[C@@H]1C[C@H]2CN(C3CCN(c4ncccn4)CC3)[C@@H](Cc3ccc(Cl)cc3)CN2C1` [Example 40, (3S,7R,8aS)-3-(4-chlorobenzyl)-2-(1-(pyrimidin-2-yl)piperidin-4-yl)octahydropyrrolo[1,2-α]pyrazin-7-ol 2,2,2-trifluoroacetate], the negative-log IC50 (pIC50) is 6.00 to 7.00.

Turning to `Cc1cccc(N2CCC(N3C[C@H](C)OC[C@@H]3Cc3ccc(Cl)cc3)CC2)n1` [compound 135, (2S,5S)-5-(4-chlorobenzyl)-2-methyl-4-(1-(6-methylpyridin-2-yl)piperidin-4-yl)morpholine hydrochloride], the pIC50 is under 4.00.

As to `C[C@H]1CN(C2CCN(c3ncccc3O)CC2)[C@@H](Cc2ccc(Cl)cc2)CO1` [compound 160, 2-(4-((2S,5S)-5-(4-chlorobenzyl)-2-methylmorpholino)piperidin-1-yl)pyridin-3-ol 2,2,2-trifluoroacetate], the negative-log IC50 (pIC50) is under 4.00.
